# How the values were obtained:
# Assay type in all cases: in vivo
# [1] = system: ryegrass, Italian (italian ryegrass, Lolium multiflorum); assay: Test A postemergence application, visual injury rating 0-100
# Procedure, shortened: (§1)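 Plants in a loam and sand soil blend were treated with each test chemical, in a non-phytotoxic solvent system including surfactant, either sprayed on seeded soil before emergence or applied after emergence at the one- to two-leaf stage. Ten days later in the greenhouse, plants were compared with untreated controls and visually rated from 0 (no effect) to 100 (complete control).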
# [2] = system: palmer (palmer amaranth, palmer pigweed, Amaranthus palmeri); assay: as above
# Procedure, shortened: as §1
# [3] = system: ragweed (common ragweed, Ambrosia artemisiifolia); assay: as above
# Procedure, shortened: as §1
# [4] = system: green foxtail (Setaria viridis); assay: as above
# Procedure, shortened: as §1
# [5] = system: oat, wild (wild oat, Avena fatua); assay: as above
# Procedure, shortened: as §1
# [6] = system: blackgrass (Alopecurus myosuroides); assay: as above
# Procedure, shortened: as §1
# kochia (Bassia scoparia) [7] = assay: as above
# Procedure, shortened: as §1
# soybean (Glycine max) [8] = assay: as above
# Procedure, shortened: as §1
# [9] = system: galium (catchweed bedstraw, Galium aparine); assay: as above
# Procedure, shortened: as §1
# [10] = system: wheat (Triticum aestivum); assay: as above
# Procedure, shortened: as §1
# [11] = system: horseweed (Erigeron canadensis); assay: as above
# Procedure, shortened: as §1
# corn (Zea mays) [12] = assay: as above
# Procedure, shortened: as §1
# [13] = system: barnyardgrass (Echinochloa crus-galli); assay: as above
# Procedure, shortened: as §1
# [14] = system: ryegrass, Italian (italian ryegrass, Lolium multiflorum); assay: Test A preemergence soil spray, visual injury rating 0-100; details: 10 days
# Procedure, shortened: as §1
# [15] = system: palmer (palmer amaranth, palmer pigweed, Amaranthus palmeri); assay: as above; details: 10 days
# Procedure, shortened: as §1
# [16] = system: ragweed (common ragweed, Ambrosia artemisiifolia); assay: as above; details: 10 days
# Procedure, shortened: as §1
# [17] = system: green foxtail (Setaria viridis); assay: as above; details: 10 days
# Procedure, shortened: as §1
# [18] = system: oat, wild (wild oat, Avena fatua); assay: as above; details: 10 days
# Procedure, shortened: as §1
# [19] = system: blackgrass (Alopecurus myosuroides); assay: as above; details: 10 days
# Procedure, shortened: as §1
# kochia (Bassia scoparia) [20] = assay: as above; details: 10 days
# Procedure, shortened: as §1
# soybean (Glycine max) [21] = assay: as above; details: 10 days
# Procedure, shortened: as §1
# [22] = system: wheat (Triticum aestivum); assay: as above; details: 10 days
# Procedure, shortened: as §1
# corn (Zea mays) [23] = assay: as above; details: 10 days
# Procedure, shortened: as §1
# [24] = system: barnyardgrass (Echinochloa crus-galli); assay: as above; details: 10 days
# Procedure, shortened: as §1
# [25] = system: barnyardgrass (Echinochloa crusgalli); assay: Test B flooded paddy test, visual plant response rating 0-100; details: 250 g ai/ha, Flood, applied to paddy water, evaluated after 13 days
# Procedure, shortened: (§2)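 Plants were grown to the 2-leaf stage, then pots were flooded to 3 cm above the soil and compound was applied directly to the paddy water, with that depth kept throughout.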
# rice (Oryza sativa) = assay: as above; details: 250 g ai/ha, Flood, applied to paddy water, evaluated after 13 days
# Procedure, shortened: as §2
# [26] = system: sedge, umbrella (small-flower umbrella sedge, Cyperus difformis); assay: as above; details: 250 g ai/ha, Flood, applied to paddy water, evaluated after 13 days
# Procedure, shortened: as §2
# [27] = system: ducksalad (Heteranthera limosa); assay: as above; details: 250 g ai/ha, Flood, applied to paddy water, evaluated after 13 days
# Procedure, shortened: as §2
# [28] = 62 g ai/ha, postemergence, 10 days, 0 = no effect, 100 = complete control
# [29] = Postemergence, 16 g ai/ha, greenhouse 10 days, 0 no effect, 100 complete control
# [30] = 62 g ai/ha, 0 = no effect, 100 = complete control
smiles,measurement,setting,value
CC1(C(=O)NC2CC=C(C(=O)O)C2)CN(c2cc(Cl)cc(Cl)c2)C(=O)O1 (stereo not shown) [Compound 158],"Ryegrass, Italian plant response rating (0-100)",[1]; [28],80
same,"Ryegrass, Italian plant response rating (0 to 100 scale)",[1]; [29],80
same,"Pigweed, Palmer plant response rating (0-100)",[2]; [28],90
same,"Pigweed, Palmer plant response rating (0 to 100 scale)",[2]; [29],90
same,Ragweed plant response rating (0-100),[3]; [28],60
same,Ragweed plant response rating (0 to 100 scale),[3]; [29],50
same,"Foxtail, Green plant response rating (0-100)",[4]; [28],90
same,"Foxtail, Green plant response rating (0 to 100 scale)",[4]; [29],90
same,"Oat, Wild plant response rating (0-100)",[5]; [28],90
same,"Oat, Wild plant response rating (0 to 100 scale)",[5]; [29],20
same,Blackgrass plant response rating (0-100),[6]; [28],100
same,Blackgrass plant response rating (0 to 100 scale),[6]; [29],80
same,Kochia plant response rating (0-100),kochia (Bassia scoparia) [7]; [28],90
same,Kochia plant response rating (0 to 100 scale),kochia (Bassia scoparia) [7]; [29],80
same,Soybean plant response rating (0-100),soybean (Glycine max) [8]; [28],90
same,Soybean plant response rating (0 to 100 scale),soybean (Glycine max) [8]; [29],60
same,Galium plant response rating (0-100),[9]; [28],90
same,Galium plant response rating (0 to 100 scale),[9]; [29],90
same,Wheat plant response rating (0-100),[10]; [28],80
same,Wheat plant response rating (0 to 100 scale),[10]; [29],70
same,Horseweed plant response rating (0-100),[11]; [28],70
same,Horseweed plant response rating (0 to 100 scale),[11]; [29],30
same,Corn plant response rating (0-100),corn (Zea mays) [12]; [28],100
same,Corn plant response rating (0 to 100 scale),corn (Zea mays) [12]; [29],100
same,Barnyardgrass plant response rating (0-100),[13]; [28],100
same,Barnyardgrass plant response rating (0 to 100 scale),[13]; [29],90
same,"Ryegrass, Italian plant response rating","[14]; 16 g ai/ha, 0 to 100 scale",0
same,"Ryegrass, Italian plant response rating (0-100)",[14]; [30],70
same,"Pigweed, Palmer plant response rating","[15]; 16 g ai/ha, 0 to 100 scale",50
same,"Pigweed, Palmer plant response rating (0-100)",[15]; [30],90
same,Ragweed plant response rating,"[16]; 16 g ai/ha, 0 to 100 scale",0
same,Ragweed plant response rating (0-100),[16]; [30],70
same,"Foxtail, Green plant response rating","[17]; 16 g ai/ha, 0 to 100 scale",0
same,"Foxtail, Green plant response rating (0-100)",[17]; [30],90
same,"Oat, Wild plant response rating","[18]; 16 g ai/ha, 0 to 100 scale",10
same,"Oat, Wild plant response rating (0-100)",[18]; [30],30
same,Blackgrass plant response rating,"[19]; 16 g ai/ha, 0 to 100 scale",0
same,Blackgrass plant response rating (0-100),[19]; [30],50
same,Kochia plant response rating,"kochia (Bassia scoparia) [20]; 16 g ai/ha, 0 to 100 scale",30
same,Kochia plant response rating (0-100),kochia (Bassia scoparia) [20]; [30],80
same,Soybean plant response rating,"soybean (Glycine max) [21]; 16 g ai/ha, 0 to 100 scale",0
same,Soybean plant response rating (0-100),soybean (Glycine max) [21]; [30],20
same,Wheat plant response rating,"[22]; 16 g ai/ha, 0 to 100 scale",40
same,Wheat plant response rating (0-100),[22]; [30],80
same,Corn plant response rating,"corn (Zea mays) [23]; 16 g ai/ha, 0 to 100 scale",0
same,Corn plant response rating (0-100),corn (Zea mays) [23]; [30],60
same,Barnyardgrass plant response rating,"[24]; 16 g ai/ha, 0 to 100 scale",40
same,Barnyardgrass plant response rating (0-100),[24]; [30],90
same,"Plant response rating, Barnyardgrass (0 to 100 scale, 0 is no effect and 100 is complete control)",[25],90
same,"Plant response rating, Rice (0 to 100 scale, 0 is no effect and 100 is complete control)",rice (Oryza sativa),50
same,"Plant response rating, Sedge, Umbrella (0 to 100 scale, 0 is no effect and 100 is complete control)",[26],98
same,"Plant response rating, Ducksalad (0 to 100 scale, 0 is no effect and 100 is complete control)",[27],70
